{"source": "patent US12599592B2", "about": "“Therapeutic small molecules for treatment of pulmonary hypertension” (UNIVERSITY OF PITTSBURGH—OF THE COMMONWEALTH SYSTEM OF …, priority 2020, dated 2026)", "key": {"ISCU [1]": {"tested_on": "ISCU", "assay": "Immunoblot of ISCU and GSTP1 in PASMCs", "type": "cell-based, human", "conditions": "BRD2889 1 uM", "description": "(§1) In IL-6/sIL-6R+hypoxia experiments, a human recombinant IL-6/IL-6R alpha protein chimera (25 ng/ml, Millipore) was administered at 70-80% confluency for 48 h in complete media along with vehicle control (DMSO, Sigma-41639). BRD2889 (1 uM) vs. vehicle control were added, as indicated, and placed into a hypoxia chamber for 24 h. The hypoxia chamber (modular incubator chamber) was obtained from Billups-Rothenberg Inc. (Del Mar, Calif) and placed in regulated CO2 incubator at 37° C.\nImmunoblot and densitometry: Cells were lysed in RIPA buffer (Sigma) along with 1× protease inhibitor cocktail (Sigma). Protein lysate was resolved by gradient 4%-15% SDS-PAGE gels and transferred onto a 0.2 μm PVDF membrane (Bio-Rad). Membranes were blocked in 5% non-fat milk in 1×PBST buffer for one hour at room temperature. Later, they were incubated in the presence of the primary antibody overnight at 4° C. and then appropriate HRP-conjugated secondary antibodies (Life Technologies). The following antibodies were used: human LGALS8 (AF1305, RnD Systems), mouse/rat Lgals8 (ab69631, Abcam), pSTAT1 (ab29045, Abcam) and STAT1 (ab47425, Abcam), GSTP1 (ab153949, Abcam), ISCU (14812-1-AP, Prointech), Glutathione (ab19534, Abcam), HIF2A (NB100-122, Novous), α-Tubulin (CP06, Millipore sigma), and ACTB (sc-47778, Santa Cruz). […] The images were later quantified using AlphaEaseFC software (Alpha Innotech)."}, "GST activity": {"tested_on": "GST activity", "assay": "GST activity in PASMCs", "type": "cell-based, human", "conditions": "IL-6/R + hypoxia, BRD2889 1 uM", "description": "as §1"}, "ISCU [2]": {"tested_on": "ISCU", "assay": "Immunoblot of ISCU and GSTP1 in PAECs", "type": "cell-based, human", "description": "For hypoxia exposure, cells were plated in 6-well cell culture plates at 1×10^5 cells/well, grown for 24 hr and placed into a normobaric hypoxia chamber (1% O2) for 24 h under specific treatment conditions. Namely, for I-BET and siLGALS8 exposures, cells were either pre-treated with I-BET/vehicle control (VC) or transfected with siLgals8/Scr for 24 h. Then, they were cultured in basal media at 1% 02. After 24 h, caspase activity and mitochondrial superoxide levels were quantified. To detect activation status of pSTAT1/STAT1 by immunoblot, cells were exposed to 8 h of hypoxia.\nas §1\nProtein stability assay: The proteasome inhibitor MG132 (M7449, Sigma) was stored at −20° C. at a concentration of 10 mM diluted in dimethyl sulfoxide (DMSO). PAECs were exposed to MG132 ([…]) vs. DMSO vehicle control for 2 hr under hypoxia, prior to harvesting of cellular lysate for immunoblotting.\nImmunoblot and densitometry: Cells were lysed in RIPA buffer (Sigma) along with 1× protease inhibitor cocktail (Sigma). Protein lysate was resolved by gradient 4%-15% SDS-PAGE gels and transferred onto a 0.2 μm PVDF membrane (Bio-Rad). Membranes were blocked in 5% non-fat milk in 1×PBST buffer for one hour at room temperature. Later, they were incubated in the presence of the primary antibody overnight at 4° C. and then appropriate HRP-conjugated secondary antibodies (Life Technologies). The following antibodies were used: human LGALS8 (AF1305, RnD Systems), mouse/rat Lgals8 (ab69631, Abcam), pSTAT1 (ab29045, Abcam) and STAT1 (ab47425, Abcam), GSTP1 (ab153949, Abcam), ISCU (14812-1-AP, Prointech), Glutathione (ab19534, Abcam), HIF2A (NB100-122, Novous), α-Tubulin (CP06, Millipore sigma), and ACTB (sc-47778, Santa Cruz). The immunoreactive bands were visualized with the Chemidoc XRS+system (Bio-Rad) using SuperSignal West Femto chemiluminescent substrates (Thermo Fisher Scientific). The images were later quantified using AlphaEaseFC software (Alpha Innotech)."}, "[3]": {"target": "glutathione S-transferase pi 1 (GSTP1) (Homo sapiens, UniProt P09211)", "sequence (P09211 whole entry, species assumed)": "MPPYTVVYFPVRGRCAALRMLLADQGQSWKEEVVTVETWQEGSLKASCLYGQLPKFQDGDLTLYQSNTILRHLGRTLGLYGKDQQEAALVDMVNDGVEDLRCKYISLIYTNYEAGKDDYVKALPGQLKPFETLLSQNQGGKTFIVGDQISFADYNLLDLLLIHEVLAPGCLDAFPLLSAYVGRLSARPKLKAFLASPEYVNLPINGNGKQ", "conditions": "literature report; cited from earlier work"}}}
{"smiles": "COc1ccc(C#CC2CCCN(C(=O)/C=C/c3cc(OC)c(OC)c(OC)c3)C2=O)cc1", "note": "(centres unmarked) [BRD2889]", "values": [{"measurement": "GSTP1 protein expression", "setting": "ISCU [1]; IL-6/R + hypoxia", "result": "did not affect"}, {"measurement": "ISCU protein", "setting": "ISCU [1]; IL-6/sIL-6R + hypoxia", "result": "failed to rescue"}, {"measurement": "GST activity", "setting": "GST activity", "result": "did not affect"}, {"measurement": "GSTP1 expression", "setting": "ISCU [2]; PAECs, IL-6/R + hypoxia", "result": "without altering"}, {"measurement": "ISCU expression (immunoblot)", "setting": "ISCU [2]; PAECs, IL-6/sIL-6R + hypoxia, BRD2889 1 uM", "result": "reversed the decrease"}, {"measurement": "GSTP1 expression", "setting": "ISCU [2]; hypoxic PAECs", "result": "did not affect"}, {"measurement": "ISCU protein levels", "setting": "ISCU [2]; hypoxic PAECs", "result": "reversed hypoxia-dependent reduction"}, {"measurement": "inhibition of GSTP1", "setting": "[3]", "result": "known to inhibit"}]}
